In publication PMC3692424, “A New Type of Na^+-Driven ATP Synthase Membrane Rotor with a Two-Carboxylate Ion-Coupling Motif” (PLoS Biology, 2013):

Legend:
[1] = biological target: T1, F. nucleatum F1Fo-ATP synthase (purified; c-ring site of DCCD) (Fusobacterium nucleatum, UniProt Q8RGD7); assay: inhibition of ATP hydrolysis, ATP-regenerating assay; assay type: biochemical; details: covalent (Glu65 of subunit c); 20 min preincubation at 25 °C, 50 mM MOPS, 2 mM MgCl2, pH 7.5; no added Na+
T1 construct: gene atpE; same native holoenzyme as P1; entry split because DCCD modifies Glu65 of subunit c; with ATP synthase subunit alpha; ATP synthase subunit beta; ATP synthase gamma chain; ATP synthase subunit delta; ATP synthase epsilon chain; ATP synthase subunit a; ATP synthase subunit b

[2] = biological target: T2, F. nucleatum c11 ring (isolated c-ring) (Fusobacterium nucleatum, UniProt Q8RGD7); assay: fluorescence increase on labelling; SDS-PAGE under UV light; assay type: binding; details: covalent (Glu65); 100 µM NCD-4, MES pH 5.7, 1.5% n-octyl-β-D-glycoside, no Na+
T2 construct: gene atpE; isolated c11 ring from hybrid ATP synthase (I. tartaricus F1-ab2) expressed in E. coli DK8; detergent-solubilized
T2 sequence (Q8RGD7 whole entry): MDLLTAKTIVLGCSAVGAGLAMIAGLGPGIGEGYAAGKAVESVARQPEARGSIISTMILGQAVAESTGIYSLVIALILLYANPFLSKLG

Row | SMILES | inhibition of ATP hydrolysis, ATP-regenerating assay [1] | fluorescence increase on labelling; SDS-PAGE under UV light [2]
1 | C(=NC1CCCCC1)=NC1CCCCC1 [DCCD, N,N′-dicyclohexylcarbodiimide] | The ATPase activity of the enzyme was inhibited by DCCD in a concentration-dependent manner | 
2 | CN(C)c1ccc(N=C=NC2CCCCC2)c2ccccc12 [NCD-4, N-cyclohexyl-N′-(4-(dimethylamino)-α-naphthyl)-carbodiimide] |  | NCD-4 modifies Glu65 in the isolated c-ring
